In one assay the target is T1, hDPP III (Homo sapiens, UniProt Q9NY33).
T1 sequence (Q9NY33 1-737): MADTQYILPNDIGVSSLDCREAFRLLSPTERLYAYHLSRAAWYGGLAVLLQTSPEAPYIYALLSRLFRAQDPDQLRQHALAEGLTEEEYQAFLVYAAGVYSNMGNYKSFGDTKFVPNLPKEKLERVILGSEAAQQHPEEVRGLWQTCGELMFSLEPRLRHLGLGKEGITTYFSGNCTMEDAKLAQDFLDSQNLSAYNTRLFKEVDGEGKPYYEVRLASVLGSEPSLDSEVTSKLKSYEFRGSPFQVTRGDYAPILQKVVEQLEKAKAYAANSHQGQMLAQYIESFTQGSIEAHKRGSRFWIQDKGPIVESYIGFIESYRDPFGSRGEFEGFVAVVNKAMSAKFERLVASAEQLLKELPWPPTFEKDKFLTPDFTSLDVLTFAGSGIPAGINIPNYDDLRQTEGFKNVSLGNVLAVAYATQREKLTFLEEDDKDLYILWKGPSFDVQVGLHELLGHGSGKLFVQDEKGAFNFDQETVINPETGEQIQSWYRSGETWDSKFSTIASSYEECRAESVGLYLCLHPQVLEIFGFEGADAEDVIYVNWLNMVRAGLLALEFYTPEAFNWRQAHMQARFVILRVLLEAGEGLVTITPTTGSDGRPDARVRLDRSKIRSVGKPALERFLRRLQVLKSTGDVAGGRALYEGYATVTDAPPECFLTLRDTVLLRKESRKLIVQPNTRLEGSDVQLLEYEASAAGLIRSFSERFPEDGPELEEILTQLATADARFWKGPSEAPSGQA
The experiment in a line: biochemical. The protocol: (§1) The Km values for hydrolysis of fluorogenic substrate Arg2-2NA were determined at pH 7.4 (20 mM Tris–HCl buffer) and at 25 °C, from the initial reaction rates as previously described.[26]
(§2) Enzyme inhibition studies with tynorphin were performed using the Arg2-2NA as a substrate, according to Baršun et al.[36] The inhibition constant, Ki, was calculated according to the equation:1 Ki = i/(v0/vi − 1)·Km/(Km + s)where v0 and vi are the initial hydrolysis rates of Arg2-2NA (given in concentration s) catalyzed by DPP III in the absence and presence of inhibitor concentration (i), and Km is the Michaelis constant.

In a further assay the target is T2, yDPP III (Saccharomyces cerevisiae, UniProt Q08225).
T2 construct: His6 (C); made in house; host or cells: E. coli
T2 sequence (Q08225 1-711): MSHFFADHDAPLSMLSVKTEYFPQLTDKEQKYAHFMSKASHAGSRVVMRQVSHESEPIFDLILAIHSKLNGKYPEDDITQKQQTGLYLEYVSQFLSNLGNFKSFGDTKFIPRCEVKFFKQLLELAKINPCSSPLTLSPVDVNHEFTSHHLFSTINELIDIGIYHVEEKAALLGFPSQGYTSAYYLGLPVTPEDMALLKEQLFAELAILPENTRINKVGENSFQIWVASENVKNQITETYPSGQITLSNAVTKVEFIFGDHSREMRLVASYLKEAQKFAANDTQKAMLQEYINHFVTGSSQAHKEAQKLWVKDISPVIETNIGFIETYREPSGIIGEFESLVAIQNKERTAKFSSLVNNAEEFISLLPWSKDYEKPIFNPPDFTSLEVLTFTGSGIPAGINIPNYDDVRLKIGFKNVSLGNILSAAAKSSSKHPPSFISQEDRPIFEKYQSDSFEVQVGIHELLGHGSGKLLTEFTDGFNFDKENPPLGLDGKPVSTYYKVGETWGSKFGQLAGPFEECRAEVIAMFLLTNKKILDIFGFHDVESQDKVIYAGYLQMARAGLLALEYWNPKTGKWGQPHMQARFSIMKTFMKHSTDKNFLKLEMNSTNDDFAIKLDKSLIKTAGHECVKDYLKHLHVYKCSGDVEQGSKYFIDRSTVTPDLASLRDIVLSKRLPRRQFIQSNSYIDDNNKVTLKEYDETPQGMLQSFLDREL
The experiment in a line: Inhibition of DPP III hydrolysis of Arg2-2NA by tynorphin. The following applies: substrate Arg2-2NA, from initial hydrolysis rates, eq. 1. The class given is biochemical, yeast (Saccharomyces cerevisiae). As to the method:
as §1, §2

This passage reports Ki results from article PMC9079729, “Conservation of the conformational dynamics and ligand binding within M49 enzyme family” (RSC Advances, 2018).

Residues, ends and D or L forms follow the SMILES beside them.

By Ki is commonly meant a measure of affinity in units of concentration, obtained from inhibition or displacement.

`CC(C)[C@H](N)C(=O)N[C@H](C(=O)N[C@@H](Cc1ccc(O)cc1)C(=O)N1CCC[C@H]1C(=O)N[C@@H](Cc1c[nH]c2ccccc12)C(=O)O)C(C)C` [tynorphin] (H-VVYPW-OH): the values for the Ki at hDPP III and on yDPP III were 30 nM and 470 nM, respectively.
